Data from patent publication US7335725B2, “Lipopeptides as antibacterial agents” (priority 1999, dated 2008).

Legend:
[1] = test system: S. aureus; test: MIC by NCCLS broth microdilution, S. aureus; type: cell-based; settings: Mueller-Hinton Broth with 50 mg/L Ca2+, 37° C.
Experimental: (§1) Compounds were dissolved in 100% dimethyl sulfoxide and were diluted to the final reaction concentration (0.1 μg/mL-100 μg/mL) in microbial growth media. In all cases the final concentration of dimethyl sulfoxide incubated with cells is less than or equal to 1%. […] The optical densities (OD) of the bacterial cells, which measures bacterial cell growth and proliferation, were measured using a commercial plate reader. The MIC value is defined as the lowest compound concentration inhibiting growth of the test organism.

[2] = test system: E. faecalis; test: MIC by NCCLS broth microdilution, E. faecalis; type: cell-based; settings: Mueller-Hinton Broth with 50 mg/L Ca2+, 37° C.
Experimental: as §1

Boc-protected daptomycin α,β-tridecenoyl amide [Compound 110]
MIC (μg/ml) S. aureus [1]: +++ (the compound has an MIC (μg/ml) of 1 μg/ml or less) | MIC (μg/ml) E. faecalis [2]: ++ (an MIC (μg/ml) or an ED50 (mg/kg) of more than 1 μg/ml or 1 mg/kg, respectively, but less than or equal to 10 μg/ml or 10 mg/kg, respectively)
